Experimental data taken from ChEMBL document CHEMBL4842340, “Development of Cagrilintide, a Long-Acting Amylin Analogue” (J Med Chem, 2021).
Values after ≈ are worked out from the molar mass of the structure shown. *1 amine or outer side, *2 acyl side, *3 side chain or, on linkers, in order; H or OH if unused. Where a SMILES comes first, the peptide text is derived from it. Bridges are numbered along the chain shown (N, C = ends). [ ]: non-standard residue; d: D form. The star is where a group is joined. X1 = O=C(NC(=O)[C@H](Cc1cnc[nH]1)N[*:1])[C@@H](Cc1cnc[nH]1)C(=O)[*:2]; C20 diacid = O=C(O)CCCCCCCCCCCCCCCCCCC(=O)*; γGlu = O=C(O)[C@H](CCC(=O)[*:2])N[*:1]; hArg = N=C(N)NCCCC[C@H](N)C(=O)O; Agb = N=C(N)NCC[C@H](N)C(=O)O; AEEA = NCCOCCOCC(=O)O

Tests used:
[1] = Solubility of the compound in bis-tris propane at pH 6.5 by UPLC analysis; assay type: physicochemical; conditions: bis-tris propane buffer
[2] = Solubility of the compound in bis-tris propane at pH 7.5 by UPLC analysis; assay type: physicochemical; conditions: bis-tris propane buffer
[3] = Solubility of the compound in lactate at pH 4 by UPLC analysis; assay type: physicochemical; conditions: lactate buffer
[4] = Displacement of [125I]-calcitonin from human calcitonin receptor expressed in tk-ts 13 cells measured after 120 mins by scintillation proximity assay; assay type: cell-based; conditions: tk-ts13
[5] = organism: Homo sapiens; assay: Ratio of EC50 for human calcitonin receptor expressed in BHK570 cells to EC50 for human AMY3R (CT+RAMP3) expressed in Hollex1 cells; assay type: cell-based
[6] = Agonist activity at human AMY3R (CT+RAMP3) expressed in Hollex1 cells incubated for 3 hrs by luminescence assay; assay type: cell-based; conditions: Hollex1, 3 h
[7] = Displacement of [125I]-amylin from rat AMY3R (CTR+RAMP3) expressed in BHK-13 cells measured after 120 mins by scintillation proximity assay; assay type: cell-based
[8] = Solubility of the compound in lactate at pH 3 by UPLC analysis; assay type: physicochemical; conditions: lactate buffer
[9] = Displacement of [125I]-calcitonin from rat calcitonin receptor expressed in tk-ts 13 cells measured after 120 mins by scintillation proximity assay; assay type: cell-based; conditions: tk-ts13
[10] = system: Rattus norvegicus; assay: Reduction in food intake in Sprague-Dawley rat at 30 nmol/kg, sc administered as single dose measured upto 24 hrs relative to control; assay type: functional; parameters: scale not given: the % may be the effect or the level left; conditions: time hrs <=24
[11] = Agonist activity at rat calcitonin receptor expressed in BHK-13 cells assessed as increase in intracellular cAMP concentration incubated for 25 mins by CRE luciferase reporter gene assay; assay type: cell-based; conditions: BHK-13, 25 min
[12] = target: Insulin (Homo sapiens) (UniProt P01308); assay: Effect on insulin (unknown origin) amyloid fibril formation assessed as lag time in glycyl-glycine buffer at pH 4 measured after 45 hrs by thioflavin-T fluorescence assay
[13] = system: Rattus norvegicus; assay: Reduction in food intake in Sprague-Dawley rat at 30 nmol/kg, sc administered as single dose measured after 24 to 48 hrs relative to control; assay type: functional; parameters: scale not given: the % may be the effect or the level left; conditions: time 24-48 hrs
[14] = target: Insulin (Homo sapiens) (UniProt P01308); assay: Effect on insulin (unknown origin) amyloid fibril formation assessed as peptide recovery in glycyl-glycine buffer at pH 4 measured after 45 hrs by thioflavin-T fluorescence assay relative to control; parameters: concentration or dose not given beside the values
[15] = organism: Rattus norvegicus; assay: Ratio of IC50 for displacement of [125I]-calcitonin from rat calcitonin receptor expressed in tk-ts 13 cells to IC50 for displacement of [125I]-amylin from rat AMY3R (CTR+RAMP3) expressed in BHK-13 cells; assay type: cell-based
[16] = Solubility of the compound in lactate at pH 5 by UPLC analysis; assay type: physicochemical; conditions: lactate buffer
[17] = Agonist activity at human calcitonin receptor expressed in BHK570 cells assessed as increase in intracellular cAMP concentration incubated for 3 hrs in absence of albumin by CRE luciferase reporter gene assay; assay type: cell-based; conditions: BHK570, 3 h
[18] = organism: Rattus norvegicus; assay: Ratio of EC50 for rat calcitonin receptor expressed in BHK-13 cells to EC50 for rat AMY3R (CT+RAMP3) expressed in tk-ts13 cells; assay type: cell-based
[19] = Solubility of the compound in bis-tris propane at pH 8 by UPLC analysis; assay type: physicochemical; conditions: bis-tris propane buffer
[20] = Agonist activity at rat AMY3R (CT+RAMP3) expressed in tk-ts13 cells assessed as increase in intracellular cAMP level incuabted for 25 mins by CRE luciferase reporter gene assay; assay type: cell-based; conditions: tk-ts13, 25 min
[21] = Solubility of the compound in bis-tris propane at pH 6 by UPLC analysis; assay type: physicochemical; conditions: bis-tris propane buffer
[22] = Displacement of [125I]-amylin from human AMY3R (CTR+RAMP3) expressed in BHK-13 cells measured after 120 mins by scintillation proximity assay; assay type: cell-based
[23] = organism: Homo sapiens; assay: Ratio of IC50 for displacement of [125I]-calcitonin from human calcitonin receptor expressed in tk-ts 13 cells to IC50 for displacement of [125I]-amylin from human AMY3R (CTR+RAMP3) expressed in BHK-13 cells; assay type: cell-based
[24] = Solubility of the compound in bis-tris propane at pH 7 by UPLC analysis; assay type: physicochemical; conditions: bis-tris propane buffer

Chain of Insulin (Homo sapiens) (P01308 whole entry): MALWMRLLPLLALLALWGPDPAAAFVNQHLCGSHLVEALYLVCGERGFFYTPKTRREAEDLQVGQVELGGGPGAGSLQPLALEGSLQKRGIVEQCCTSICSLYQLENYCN

Row | solubility [1] [µM] | solubility [2] [µM] | solubility [3] [µM] | EC50 [6] [nM] | solubility [8] [µM] | EC50 [11] [nM] | TIME [12] [h] | Activity [14] [%] | solubility [16] [µM] | EC50 [17] [nM] | solubility [19] [µM] | EC50 [20] [nM] | solubility [21] [µM] | IC50 [22] [nM] | solubility [24] [µM] | SMILES | Ratio EC50 [5] | Activity [10] [%] | Activity [13] [%] | Ratio EC50 [18] | further results
1 | 200 (≈ 1020 µg/mL) | 200 (≈ 1020 µg/mL) | 200 (≈ 1020 µg/mL) | 0.076 | 200 (≈ 1020 µg/mL) | 12.1 | 45 | 93 | 200 (≈ 1020 µg/mL) | 1.24 | 200 (≈ 1020 µg/mL) | 0.13 | 200 (≈ 1020 µg/mL) | 0.213 | 200 (≈ 1020 µg/mL) | CC[C@H](C)[C@H](NC(=O)[C@@H]1CCCN1C(=O)CNC(=O)[C@H](Cc1ccccc1)NC(=O)[C@H](CC(N)=O)NC(=O)[C@H](CC(N)=O)NC(=O)[C@H](CO)NC(=O)[C@H](CO)NC(=O)[C@H](Cc1cnc[nH]1)NC(=O)[C@H](Cc1cnc[nH]1)NC(=O)[C@H](CC(C)C)NC(=O)[C@H](Cc1ccccc1)NC(=O)[C@H](CC(N)=O)NC(=O)[C@H](C)NC(=O)[C@H](CC(C)C)NC(=O)[C@H](CCCNC(=N)N)NC(=O)[C@H](CCC(N)=O)NC(=O)[C@@H](NC(=O)[C@H](C)NC(=O)[C@@H]1CSSC[C@H](NC(=O)[C@H](CCCNC(=N)N)NC(=O)[C@H](CCCNC(=N)N)NC(=O)[C@H](CCCNC(=N)N)NC(=O)COCCOCCNC(=O)COCCOCCNC(=O)CC[C@H](NC(=O)CCCCCCCCCCCCCCCCCCC(=O)O)C(=O)O)C(=O)N[C@@H](CC(N)=O)C(=O)N[C@@H]([C@@H](C)O)C(=O)N[C@@H](C)C(=O)N[C@@H]([C@@H](C)O)C(=O)N1)[C@@H](C)O)C(=O)N[C@@H](CC(C)C)C(=O)N1CCC[C@H]1C(=O)N1CCC[C@H]1C(=O)N[C@H](C(=O)N[C@@H](CC(N)=O)C(=O)N[C@H](C(=O)NCC(=O)N[C@@H](CO)C(=O)N[C@@H](CCCNC(=N)N)C(=O)N[C@H](C(=O)N[C@@H](Cc1ccc(O)cc1)C(N)=O)[C@@H](C)O)C(C)C)[C@@H](C)O ({C20 diacid-γGlu-AEEA-AEEA}-RRRCNTATCATQRLANFLHHSSNNFGPILPPTNVGSRTY-NH2; disulfide 4-9) | 16 | 32 | 0 | 93 | IC50 [4]: 9.18 nM; IC50 [7]: 0.648 nM; IC50 [9]: 89.2 nM; Ratio IC50 [15]: 138; Ratio IC50 [23]: 43
2 | 115 (≈ 545 µg/mL) | 5 (≈ 23.7 µg/mL) | 200 (≈ 948 µg/mL) | 0.095 | 200 (≈ 948 µg/mL) | 18.4 | 7 | 7 | 200 (≈ 948 µg/mL) | 0.961 | 19 (≈ 90 µg/mL) | 1.03 | 200 (≈ 948 µg/mL) | 1.29 | 7 (≈ 33.2 µg/mL) | CC[C@H](C)[C@H](NC(=O)[C@@H]1CCCN1C(=O)CNC(=O)[C@H](Cc1ccccc1)NC(=O)[C@H](CC(N)=O)NC(=O)[C@H](CC(N)=O)NC(=O)[C@H](CO)NC(=O)[C@H](CO)NC(=O)[C@H](Cc1cnc[nH]1)NC(=O)[C@H](Cc1cnc[nH]1)NC(=O)[C@H](CC(C)C)NC(=O)[C@H](Cc1ccccc1)NC(=O)[C@H](CC(N)=O)NC(=O)[C@H](C)NC(=O)[C@H](CC(C)C)NC(=O)[C@H](CCNC(=N)N)NC(=O)[C@H](CCC(N)=O)NC(=O)[C@@H](NC(=O)[C@H](C)NC(=O)[C@@H]1CSSC[C@H](NC(=O)[C@H](Cc2cnc[nH]2)NC(=O)[C@H](Cc2cnc[nH]2)C(=O)NC(=O)[C@H](Cc2cnc[nH]2)NC(=O)CC[C@H](NC(=O)CCCCCCCCCCCCCCCCCCC(=O)O)C(=O)O)C(=O)N[C@@H](CC(N)=O)C(=O)N[C@@H]([C@@H](C)O)C(=O)N[C@@H](C)C(=O)N[C@@H]([C@@H](C)O)C(=O)N1)[C@@H](C)O)C(=O)N[C@@H](CC(C)C)C(=O)N1CCC[C@H]1C(=O)N1CCC[C@H]1C(=O)N[C@H](C(=O)N[C@@H](CC(N)=O)C(=O)N[C@H](C(=O)NCC(=O)N[C@@H](CO)C(=O)N[C@@H](CC(N)=O)C(=O)N[C@H](C(=O)N[C@@H](Cc1ccc(O)cc1)C(N)=O)[C@@H](C)O)C(C)C)[C@@H](C)O ({C20 diacid-γGlu}-[X1]HCNTATCATQ[Agb]LANFLHHSSNNFGPILPPTNVGSNTY-NH2; disulfide 3-8) | 10 | 28 | 0 | 18 | 
3 | 50 (≈ 238 µg/mL) | 7 (≈ 33.4 µg/mL) | 200 (≈ 953 µg/mL) | 0.102 | 200 (≈ 953 µg/mL) | 4.48 | 4 | 21 | 200 (≈ 953 µg/mL) | 0.391 | 25 (≈ 119 µg/mL) | 0.321 | 200 (≈ 953 µg/mL) | 1.11 | 2 (≈ 9.53 µg/mL) | CC[C@H](C)[C@H](NC(=O)[C@@H]1CCCN1C(=O)CNC(=O)[C@H](Cc1ccccc1)NC(=O)[C@H](CC(N)=O)NC(=O)[C@H](CC(N)=O)NC(=O)[C@H](CO)NC(=O)[C@H](CO)NC(=O)[C@H](Cc1cnc[nH]1)NC(=O)[C@H](Cc1cnc[nH]1)NC(=O)[C@H](CC(C)C)NC(=O)[C@H](Cc1ccccc1)NC(=O)[C@H](CC(N)=O)NC(=O)[C@H](C)NC(=O)[C@H](CC(C)C)NC(=O)[C@H](CCCCNC(=N)N)NC(=O)[C@H](CCC(N)=O)NC(=O)[C@@H](NC(=O)[C@H](C)NC(=O)[C@@H]1CSSC[C@H](NC(=O)[C@H](Cc2cnc[nH]2)NC(=O)[C@H](Cc2cnc[nH]2)C(=O)NC(=O)[C@H](Cc2cnc[nH]2)NC(=O)CC[C@H](NC(=O)CCCCCCCCCCCCCCCCCCC(=O)O)C(=O)O)C(=O)N[C@@H](CC(N)=O)C(=O)N[C@@H]([C@@H](C)O)C(=O)N[C@@H](C)C(=O)N[C@@H]([C@@H](C)O)C(=O)N1)[C@@H](C)O)C(=O)N[C@@H](CC(C)C)C(=O)N1CCC[C@H]1C(=O)N1CCC[C@H]1C(=O)N[C@H](C(=O)N[C@@H](CC(N)=O)C(=O)N[C@H](C(=O)NCC(=O)N[C@@H](CO)C(=O)N[C@@H](CC(N)=O)C(=O)N[C@H](C(=O)N[C@@H](Cc1ccc(O)cc1)C(N)=O)[C@@H](C)O)C(C)C)[C@@H](C)O ({C20 diacid-γGlu}-[X1]HCNTATCATQ[hArg]LANFLHHSSNNFGPILPPTNVGSNTY-NH2; disulfide 3-8) | 4 | 24 | 2 | 7 | 
